In US8916499B2, “Herbicidal compositions comprising 4-amino-3-chloro-5-fluoro-6-(4-chloro-2-fluoro-3-methoxyphenyl) pyridine-2-carboxylic acid or a derivative thereof and a protoporphyrinogen oxidase inhibitor” (Dow AgroSciences LLC, priority 2012, dated 2014):
“And” between values parts separate entries of the source, which are not always exact repeats. Equal values may be shown once.

Assays:
XANST = assay: Pre-emergence soil-applied weed control, greenhouse (Example IV); assay type: in vivo, Xanthium strumarium L.
From the text: (§1) Seeds or nutlets of the desired test plant species were planted in a soil matrix prepared by mixing a loam soil (32 percent silt, 23 percent clay, and 45 percent sand, with a pH of about 6.5 and an organic matter content of about 1.9 percent) and calcareous grit in an 80 to 20 ratio. The soil matrix was contained in plastic pots with a volume of 1 quart and a surface area of 83.6 square centimeters (cm^2).
(§2) Treatments consisted of the benzyl ester of 4-amino-3-chloro-5-fluoro-6-(4-chloro-2-fluoro-3-methoxy-phenyl)pyridine-2-carboxylic acid (compound A) formulated as an SC (suspension concentrate) and various herbicidal components alone and in combination. Forms of compound A were applied on an acid equivalent basis.
(§3) Other herbicidal components were applied on an acid equivalent or active ingredient basis and included the protoporphyrinogen oxidase (PPO)-inhibiting herbicides, flumioxazin formulated as Payload® and oxadiazon formulated as Ronstar® 50W.
(§4) Treatment requirements were calculated based upon the rates being tested, the concentration of active ingredient or acid equivalent in the formulation, and a 12 mL application volume at a rate of 187 L/ha.
(§5) For treatments comprised of formulated compounds, measured amounts of compounds were placed individually in 25 mL glass vials and diluted in a volume of 1.25% (v/v) Agri-Dex® crop oil concentrate (COC) to obtain 12× stock solutions. […] Application solutions were prepared by adding an appropriate amount of each stock solution (e.g., 1 mL) and diluted to the appropriate final concentrations with the addition of 10 mL of an aqueous mixture of 1.25% (v/v) COC so that the final spray solutions contained 1.25% (v/v) COC.
(§6) All stock solutions and applications solutions were visually inspected for compound compatibility prior to application. Spray solutions were applied to the soil with an overhead Mandel track sprayer equipped with a 8002E nozzles calibrated to deliver 187 L/ha over an application area of 0.503 m^2 at a spray height of 18 inches (46 cm) above average pot height. Control pots were sprayed in the same manner with the solvent blank.
The treated and control pots were placed in a greenhouse and top watered as needed. When required to ensure good germination and healthy plants, a fungicide treatment and/or other chemical or physical treatment was applied. The pots were maintained in a greenhouse with an approximate 14 hr photoperiod which was maintained at about 29° C. during the day and 26° C. during the night. […] After approximately 4 weeks, the condition of the test plants as compared with that of the untreated plants was determined visually and scored on a scale of 0 to 100 percent where 0 corresponds to no injury or growth inhibition and 100 corresponds to complete kill. […]

LEFCH [1] = assay: In-water applied weed control, transplanted paddy rice, greenhouse (Example II); assay type: in vivo, Leptochloa chinensis (L.) Nees
ECHCO = assay: Postemergence foliar-applied weed control, direct seeded rice, greenhouse (Example I); assay type: in vivo, Echinochloa colona (L.) Link
LEFCH [2] = assay: as above; assay type: in vivo, Leptochloa chinensis (L.) Nees; details: g ae/ha Compound A Benzyl Ester+g ai/ha saflufenacil: r26 8.75+0, r27 17.5+0, r28 0+5, r29 0+10, r30 8.75+5, r31 17.5+5, r32 8.75+10, r33 17.5+10
ECHOR = assay: In-water applied weed control, transplanted paddy rice, greenhouse (Example II); assay type: in vivo, Echinochloa oryzoides (Ard.) Fritsch
IPOHE [3] = assay: Postemergence foliar-applied weed control, direct seeded rice, greenhouse (Example I); assay type: in vivo, Ipomoea hederacea Jacq.; details: g ae/ha Compound A Benzyl Ester+g ai/ha oxadiazon: r33 17.5+0, r34 0+250, r35 17.5+250
SCPMA = assay: In-water applied weed control, transplanted paddy rice, greenhouse (Example II); assay type: in vivo
CYPRO = assay: as above; assay type: in vivo, Cyperus rotundus L.
SETVI = assay: Pre-emergence soil-applied weed control, greenhouse (Example IV); assay type: in vivo, Setaria viridis (L.) Beauv.
From the text: as §1, §2, §3, §4
as §5, with “COC. […]” for “COC.”
The treated and control pots were placed in a greenhouse and top watered as needed. […] After approximately 4 weeks, the condition of the test plants as compared with that of the untreated plants was determined visually and scored on a scale of 0 to 100 percent where 0 corresponds to no injury or growth inhibition and 100 corresponds to complete kill. […]

ECHCG = assay: Postemergence foliar-applied weed control, direct seeded rice, greenhouse (Example I); assay type: in vivo, Echinochloa crusgalli (L.) Beauv.
CYPIR = assay: as above; assay type: in vivo, Cyperus iria L.
IPOHE [4] = assay: Pre-emergence soil-applied weed control, greenhouse (Example IV); assay type: in vivo, Ipomoea hederacea (L.) Jacq.
From the text: as §1, §2, §3, §4, §5, §6
The treated and control pots were placed in a greenhouse and top watered as needed. When required to ensure good germination and healthy plants, a fungicide treatment and/or other chemical or physical treatment was applied. The pots were maintained in a greenhouse with an approximate 14 hr photoperiod which was maintained at about 29° C. during the day and 26° C. during the night. Nutrients (Peters® Excel 15-5-15 5-Ca 2-Mg) were applied in the irrigation solution as needed and water was added on a regular basis. Supplemental lighting was provided with overhead metal halide 1000-Watt lamps as necessary. After approximately 4 weeks, the condition of the test plants as compared with that of the untreated plants was determined visually and scored on a scale of 0 to 100 percent where 0 corresponds to no injury or growth inhibition and 100 corresponds to complete kill.
Colby's equation was used to determine the herbicidal effects expected from the mixtures (Colby, S. R. 1967. Calculation of the synergistic and antagonistic response of herbicide combinations. Weeds 15:20-22.).
The following equation was used to calculate the expected activity of mixtures containing two active ingredients, A and B: Expected=A+B−(A×B/100)

[5] = g ae/ha Compound A Benzyl Ester+g ai/ha carfentrazone-ethyl: r11 8.75+0, r12 0+3.5, r13 0+7, r14 0+14, r15 8.75+3.5, r16 8.75+7, r17 8.75+14

## COc1c(Cl)ccc(-c2nc(C(=O)OCc3ccccc3)c(Cl)c(N)c2F)c1F [Compound A Benzyl Ester, benzyl ester of 4-amino-3-chloro-5-fluoro-6-(4-chloro-2-fluoro-3-methoxy-phenyl)pyridine-2-carboxylic acid]
XANST; 16 g ae/ha alone
  Visual Weed Control (%) - 29 DAA XANST Obs: 0%
XANST; 32 g ae/ha alone
  Visual Weed Control (%) - 29 DAA XANST Obs: 5%
LEFCH [1]; 4.38 g ae/ha alone
  Visual Weed Control (%) - 20 DAA LEFCH Obs: 0%
LEFCH [1]; 8.75 g ae/ha alone
  Visual Weed Control (%) - 20 DAA LEFCH Obs: 20%
LEFCH [1]; 17.5 g ae/ha alone
  Visual Weed Control (%) - 20 DAA LEFCH Obs: 30%
ECHCO; g ae/ha Compound A Benzyl Ester+g ai/ha acifluorfen sodium: r11 8+0, r12 0+140, r13 0+280, r14 8+140, r15 8+280
  Visual Weed Control (%) - 21 DAA ECHCO Obs: 40%
ECHCO; g ae/ha Compound A Benzyl Ester+g ai/ha pyraclonil: r15 4.38+0, r16 0+33.75, r17 0+67.5, r18 0+135, r19 4.38+33.75, r20 4.38+67.5, r21 4.38+135
  Visual Weed Control (%) - 20 DAA ECHCO Obs: 40%
ECHCO; g ae/ha Compound A Benzyl Ester+g ai/ha saflufenacil: r14 4.38+0, r15 8.75+0, r16 0+10, r17 0+20, r18 4.38+10, r19 8.75+10, r20 4.38+20, r21 8.75+20
  Visual Weed Control (%) - 20 DAA ECHCO Obs: 60% and 80%
LEFCH [2]
  Visual Weed Control (%) - 20 DAA LEFCH Obs: 30% and 50%
ECHOR; 4.38 g ae/ha alone
  Visual Weed Control (%) - 20 DAA ECHOR Obs: 10%
ECHOR; 8 g ae/ha alone
  Visual Weed Control (%) - 21 DAA ECHOR Obs: 20%
ECHOR; 8.75 g ae/ha alone
  Visual Weed Control (%) - 20 DAA ECHOR Obs: 15%
  Visual Weed Control (%) - 21 DAA ECHOR Obs: 25%
ECHOR; 16 g ae/ha alone
  Visual Weed Control (%) - 21 DAA ECHOR Obs: 45%
ECHOR; 17.5 g ae/ha alone
  Visual Weed Control (%) - 21 DAA ECHOR Obs: 60%
ECHOR; 32 g ae/ha alone
  Visual Weed Control (%) - 21 DAA ECHOR Obs: 60%
IPOHE [3]
  Visual Weed Control (%) - 21 DAA IPOHE Obs: 10%
SCPMA; 48 g ae/ha alone
  Visual Weed Control (%) - 21 DAA SCPMA Obs: 0%
SCPMA; 96 g ae/ha alone
  Visual Weed Control (%) - 21 DAA SCPMA Obs: 0%
CYPRO; 4.38 g ae/ha alone
  Visual Weed Control (%) - 21 DAA CYPRO Obs: 30%
CYPRO; 8.75 g ae/ha alone
  Visual Weed Control (%) - 21 DAA CYPRO Obs: 60%
CYPRO; g ae/ha Compound A Benzyl Ester+g ai/ha oxyfluorfen (SC): r11 32+0, r12 0+135, r13 0+270, r14 32+135, r15 32+270
  Visual Weed Control (%) - 21 DAA CYPRO Obs: 90%
CYPRO; g ae/ha Compound A Benzyl Ester+g ai/ha pyraclonil: r19 4.38+0, r20 8.75+0, r21 0+45, r22 0+90, r23 4.38+45, r24 8.75+45, r25 4.38+90, r26 8.75+90
  Visual Weed Control (%) - 20 DAA CYPRO Obs: 20%
SETVI; 16 g ae/ha alone
  Visual Weed Control (%) - 28 DAA SETVI Obs: 10%
SETVI; 32 g ae/ha alone
  Visual Weed Control (%) - 28 DAA SETVI Obs: 10%
ECHCG; [5]
  Visual Weed Control (%) - 21 DAA ECHCG Obs: 55%
ECHCG; g ae/ha Compound A Benzyl Ester+g ai/ha oxyfluorfen (SC): r25 4.38+0, r26 0+90, r27 0+180, r28 0+360, r29 4.38+90, r30 4.38+180, r31 4.38+360
  Visual Weed Control (%) - 23 DAA ECHCG Obs: 40%
ECHCG; g ae/ha Compound A Benzyl Ester+g ai/ha pyraflufen-ethyl: r11 8+0, r12 0+5.3, r13 0+10.6, r14 8+5.3, r15 8+10.6
  Visual Weed Control (%) - 21 DAA ECHCG Obs: 45%
CYPIR; g ae/ha Compound A Benzyl Ester+g ai/ha bifenox (Fox ®): r17 8+0, r18 0+180, r19 0+360, r20 0+720, r21 8+180, r22 8+360, r23 8+720
  Visual Weed Control (%) - 21 DAA CYPIR Obs: 30%
CYPIR; [5]
  Visual Weed Control (%) - 21 DAA CYPIR Obs: 85%
CYPIR; g ae/ha Compound A Benzyl Ester+g ai/ha oxyfluorfen (technical): r27 4.38+0, r28 0+90, r29 0+180, r30 0+360, r31 4.38+90, r32 4.38+180, r33 4.38+360
  Visual Weed Control (%) - 21 DAA CYPIR Obs: 30%
CYPIR; g ae/ha Compound A Benzyl Ester+g ai/ha pyraflufen-ethyl: r17 8+0, r18 0+2.65, r19 0+5.3, r20 0+10.6, r21 8+2.65, r22 8+5.3, r23 8+10.6
  Visual Weed Control (%) - 21 DAA CYPIR Obs: 35%
CYPIR; g ae/ha Compound A Benzyl Ester+g ai/ha saflufenacil: r38 4.38+0, r39 0+5, r40 0+10, r41 0+20, r42 4.38+5, r43 4.38+10, r44 4.38+20
  Visual Weed Control (%) - 20 DAA CYPIR Obs: 70%
IPOHE [4]; 8 g ae/ha alone
  Visual Weed Control (%) - 32 DAA IPOHE Obs: 65%
IPOHE [4]; 16 g ae/ha alone
  Visual Weed Control (%) - 28 DAA IPOHE Obs: 13%
  Visual Weed Control (%) - 32 DAA IPOHE Obs: 83%
IPOHE [4]; 32 g ae/ha alone
  Visual Weed Control (%) - 28 DAA IPOHE Obs: 23%
